For three molecules, Ki results are on record in patent US7456170B2, “Triazolobenzodiazepines and their use as vasopressin antagonists” (Pfizer Inc., priority 2004, dated 2008).

The target of the test is human V1A receptor (Homo sapiens, UniProt P37288). The test can be described thus: V1A filter binding assay ([3H]-AVP binding to CHO-hV1A membranes). Here is the method: 1.0 V1A Filter Binding Assay
Receptor binding assays were performed on cellular membranes prepared from CHO cells stably expressing the human V1A receptor, (CHO-hV1A). The CHO-hV1A cell line was kindly provided under a licensing agreement by Marc Thibonnier, Dept. of Medicine, Case Western Reserve University School of Medicine, Cleveland, Ohio, CHO-hV1A cells were routinely maintained at 37° C. in humidified atmosphere with 5% CO2 in DMEM/Hams F12 nutrient mix supplemented with 10% fetal bovine serum, 2 mM L-glutamine, 15 mM HEPES and 400 μg/ml G418. For bulk production of cell pellets, adherent CHO-hV1A cells were grown to confluency of 90-100% in 850 cm^2 roller bottles containing a medium of DMEM/Hams F12 Nutrient Mix supplemented with 10% fetal bovine serum, 2 mM L-gitidtamine and 15 mM HEPES. Confluent CHO-hV1A cells were washed with phosphate-buffered saline (PBS), harvested into ice cold PBS and centrifuged at 1,000 rpm. Cell pellets were stored at −80° C. until use. […] Protein concentration was determined using Bradford reagent and BSA as a standard.
Protein linearity followed by saturation binding studies were performed on each new batch of membrane. […] Saturation binding studies were then performed using various concentrations of [^3H]-arginine vasopressin, [^3]-AVP (0.05 nM-100 nM) and the Kd and Bmax determined.
Compounds were tested for their effects on [^3H]-AVP binding to CHO-hV1A membranes, (^3H-AVP; specific activity 65.5 Ci/mmol: NEN Life Sciences). […] The plates were sealed and counted on a TopCount Microplate Scintillation Counter (Packard Instruments). Non-specific binding (NSB) was determined using 1 μM unlabelled d(CH2)5Tyr(Me)AVP ([β-mercapto-β,β-cyclopentamethylenepropionyl,0-Me-Tyr^2,Arg^8]-vasopressin) (βMCPVP), (Sigma). The radioligand binding data was analysed using a four parameter logistic equation with the min forced to 0%. […] Specific binding was calculated by subtracting the mean NSB cpm from the mean Total cpm. For test compounds the amount of ligand bound to the receptor was expressed as % bound=(sample cpm−mean NSB cpm)/specific binding cpm×100. […]

Where [1] appears, read: [3H]-AVP binding to CHO-hV1A membranes, screen 1.0, read-out: Ki.

As usually defined, the Ki is a measure of affinity in units of concentration, obtained from inhibition or displacement.

Like-named read-outs stand apart in the source and are kept apart here.

Sequence of human V1A receptor (P37288 whole entry): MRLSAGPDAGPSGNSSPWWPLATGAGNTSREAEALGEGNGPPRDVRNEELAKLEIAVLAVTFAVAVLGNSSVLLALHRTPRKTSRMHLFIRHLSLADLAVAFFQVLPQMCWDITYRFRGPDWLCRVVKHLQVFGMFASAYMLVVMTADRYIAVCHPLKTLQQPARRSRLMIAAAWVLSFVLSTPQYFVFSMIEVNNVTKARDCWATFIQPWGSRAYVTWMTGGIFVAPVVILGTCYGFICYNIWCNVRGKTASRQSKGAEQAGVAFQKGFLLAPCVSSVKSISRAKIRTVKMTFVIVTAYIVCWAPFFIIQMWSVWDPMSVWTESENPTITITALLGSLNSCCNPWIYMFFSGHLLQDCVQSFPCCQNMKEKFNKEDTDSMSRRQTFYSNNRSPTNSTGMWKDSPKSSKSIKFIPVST

Consider `CS(=O)(=O)N1Cc2cc(Cl)ccc2-n2c(nnc2N2CCC(c3ccccn3)CC2)C1` [Example 3, 8-Chloro-5-(methylsulfonyl)-1-(4-pyridin-2-ylpiperidin-1-yl)-5,6-dihydro-4H-[1,2,4]triazolo[4,3-a][1,4]benzodiazepine], for which the inhibition constant Ki turned out to be 0.62 nM. Consider `CN(C)S(=O)(=O)N1Cc2cc(Cl)ccc2-n2c(nnc2N2CCC(c3ccccc3)CC2)C1` [Example 8, 8-Chloro-N,N-dimethyl-1-(4-phenylpiperidin-1-yl)-4H-[1,2,4]triazolo[4,3-a][1,4]benzodiazepine-5(6H)-sulphonamide], for which the inhibition constant Ki under setting [1] was 0.36 nM. On the same count and under the same terms, then `CS(=O)(=O)N1Cc2cc(Cl)ccc2-n2c(nnc2N2CCC(c3ccccc3)CC2)C1` [Example 6, 8-Chloro-5-(methylsulfonyl)-1-(4-phenylpiperidin-1-yl)-5,6-dihydro-4H-[1,2,4]triazolo[4,3-a][1,4]benzodiazepine], with 0.17 nM.
